Patent US8580957B2, “Thetrahydroquinolines derivatives as bromodomain inhibitors” (GlaxoSmithKline LLC, priority 2009, dated 2013)
Structures can show the parent of a compound that is named as a salt.

What was measured:
[1] = test system: TNFα levels in LPS stimulated whole blood; assay: LPS Stimulated Whole Blood Measuring TNFα Levels Assay; type: cell-based; conditions: LPS 200 ng/ml, 24 hours, read-out: pIC50 (TNFα levels) (converted)
Procedure: LPS Stimulated Whole Blood Measuring TNFα Levels Assay
(§1) Activation of monocytic cells by agonists of toll-like receptors such as bacterial lipopolysaccharide (LPS) results in production of key inflammatory mediators including TNFα. Such pathways are widely considered to be central to the pathophysiology of a range of auto-immune and inflammatory disorders.
(§2) Compounds to be tested are diluted to give a range of appropriate concentrations and 1 ul of the dilution stocks is added to wells of a 96 plate. Following addition of whole blood (130 ul) the plates are incubated at 37 degrees (5% CO2) for 30 min before the addition of 10 ul of 2.8 ug/ml LPS, diluted in complete RPMI 1640 (final concentration=200 ng/ml), to give a total volume of 140 ul per well. After further incubation for 24 hours at 37 degrees, 140 ul of PBS are added to each well. The plates are sealed, shaken for 10 minutes and then centrifuged (2500 rpm×10 min). 100 ul of the supernatant are removed and TNFα levels assayed by immunoassay (typically by MesoScale Discovery technology) either immediately or following storage at −20 degrees. Dose response curves for each compound was generated from the data and an IC50 value was calculated.

[2] = test system: LPS induced IL-6 secretion from whole blood; assay: Measurement of LPS Induced IL-6 Secretion from Whole Blood; type: cell-based; conditions: LPS 200 ng/ml, 24 hours, read-out: pIC50 (IL-6 levels) (converted)
Procedure: Measurement of LPS Induced IL-6 Secretion from Whole Blood
as §1, with “IL-6.” for “TNFα.”
as §2, with “concentrations of which” for “concentrations and”, “the diluted” for “the dilution”, “to” for “to wells of”, “96 well” for “96”, “and IL-6” for “and TNFα”, “degrees. Concentration” for “degrees. Dose”

Row | Compound | IC50 [1] [µM] | IC50 [2] [µM]
1 | CC(=O)N1c2ccc(-c3ccc(N)nc3)cc2[C@@H](Nc2ccccc2)C[C@H]1C (racemic) [Example 132, (cis)-1-Acetyl-6-(6-amino-3-pyridinyl)-2-methyl-N-phenyl-1,2,3,4-tetrahydro-4-quinolinamine hydrochloride] | ≤ 10 | 
2 | CC(=O)N1c2ccc(-c3ccc(CN4CCCCC4)cc3)cc2[C@@H](Nc2ccccn2)C[C@H]1C (racemic) [Example 133, (cis)-1-Acetyl-2-methyl-6-[4-(1-pipendinylmethyl)phenyl]-N-2-pyridinyl-1,2,3,4-tetrahydro-4-quinolinamine formate salt] | ≤ 10 | 
3 | CC(=O)N1c2ccc(-c3ccc(CN4CCCCC4)cc3)cc2[C@@H](Nc2ccc(C(F)(F)F)cn2)C[C@H]1C (racemic) [Example 134, (cis)-1-Acetyl-2-methyl-6-[4-(1-piperidinylmethyl)phenyl]-N-[5-(trifluoromethyl)-2-pyridinyl]-1,2,3,4-tetrahydro-4-quinolinamine formate salt] | ≤ 10 | 
4 | CC(=O)N1c2ccc(-c3ccc(CN4CCCCC4)cc3)cc2[C@@H](Nc2ccc(C)cn2)C[C@H]1C (racemic) [Example 135, (cis)-1-Acetyl-2-methyl-N-(5-methyl-2-pyridinyl)-6-[4-(1-piperidinylmethyl)phenyl]-1,2,3,4-tetrahydro-4-quinolinamine formate salt] | ≤ 10 | 
5 | CC(=O)N1c2ccc(-c3ccc(CN4CCCCC4)cc3)cc2[C@@H](Nc2ccc(Cl)cn2)C[C@H]1C (racemic) [Example 136, (cis)-1-Acetyl-N-(5-chloro-2-pyridinyl)-2-methyl-6-[4-(1-piperidinylmethyl)phenyl]-1,2,3,4-tetrahydro-4-quinolinamine formate salt] | ≤ 10 | 
6 | CC(=O)N1c2ccc(-c3ccc(CN4CCCCC4)cc3)cc2[C@@H](Nc2ccncc2)C[C@H]1C (racemic) [Example 138, (cis)-1-Acetyl-2-methyl-6-[4-(1-piperidinylmethyl)phenyl]-N-4-pyridinyl-1,2,3,4-tetrahydro-4-quinolinamine trifluoroacetate] | ≤ 10 | 
7 | CC(=O)N1c2ccc(-n3cnc(C)c3)cc2[C@@H](Nc2ccc(C(=O)O)cn2)C[C@H]1C (racemic) [Example 143, 6-{[(cis)-1-acetyl-2-methyl-6-(4-methyl-1H-imidazol-1-yl)-1,2,3,4-tetrahydro-4-quinolinyl]amino}-3-pyridinecarboxylic acid] |  | > 10
8 | CC(=O)N1c2ccc(-n3cnc(C)c3)cc2[C@@H](Nc2ccc(C#N)cn2)C[C@H]1C (racemic) [Example 159, 6-{[(cis)-1-acetyl-2-methyl-6-(4-methyl-1H-imidazol-1-yl)-1,2,3,4-tetrahydro-4-quinolinyl]amino}-3-pyridinecarbonitrile] |  | ≤ 10
9 | CC[C@@H]1C[C@H](Nc2ccccc2)c2cc(-c3ccc(C(=O)O)cc3)ccc2N1C(C)=O (racemic) [Example 162, 4-[(cis)-1-Acetyl-2-ethyl-4-(phenylamino)-1,2,3,4-tetrahydro-6-quinolinyl]benzoic acid] | ≤ 10 | 
10 | CC[C@@H]1C[C@H](Nc2ccccc2)c2cc(-c3ccc(CN4CCCCC4)cc3)ccc2N1C(C)=O (relative stereo) [Example 163, (cis)-1-Acetyl-2-ethyl-N-phenyl-6-[4-(1-piperidinylmethyl)phenyl]-1,2,3,4-tetrahydro-4-quinolinamine formate salt] | ≤ 10 | 
11 | CC(=O)N1c2ccc(-c3ccc(C(=O)O)cc3)cc2[C@@H](Nc2ccccc2)C[C@H]1C (stereo in doubt) [Example 91, 4-[1-Acetyl-2-methyl-4-(phenylamino)-1,2,3,4-tetrahydro-6-quinolinyl]benzoic acid] | ≤ 10 | 
12 | CC(=O)N1c2ccc(-c3ccc(C(=O)O)cc3)cc2[C@H](Nc2ccc(C)cn2)C[C@@H]1C [Example 126, 4-{(2S,4R)-1-Acetyl-2-methyl-4-[(5-methyl-2-pyridinyl)amino]-1,2,3,4-tetrahydro-6-quinolinyl}benzoic acid] |  | > 10
13 | CNCCn1cc(-c2ccc3c(c2)[C@H](Nc2ccncc2)C[C@H](C)N3C(C)=O)cn1 [Example 130, (2S,4R)-1-Acetyl-2-methyl-6-{1-[2-(methylamino)ethyl]-1H-pyrazol-4-yl}-N-4-pyridinyl-1,2,3,4-tetrahydro-4-quinolinamine formate salt] |  | > 10
14 | CNCCn1cc(-c2ccc3c(c2)[C@H](Nc2cccc(C)n2)C[C@H](C)N3C(C)=O)cn1 [Example 147, (2S,4R)-1-Acetyl-2-methyl-6-{1-[2-(methylamino)ethyl]-1H-pyrazol-4-yl}-N-(6-methyl-2-pyridinyl)-1,2,3,4-tetrahydro-4-quinolinamine hydrochloride] |  | ≤ 10
15 | CNCCn1cc(-c2ccc3c(c2)[C@H](Nc2ncccc2C)C[C@H](C)N3C(C)=O)cn1 [Example 148, (2S,4R)-1-Acetyl-2-methyl-6-{1-[2-(methylamino)ethyl]-1H-pyrazol-4-yl}-N-(3-methyl-2-pyridinyl)-1,2,3,4-tetrahydro-4-quinolinamine hydrochloride] |  | ≤ 10
16 | CNCCn1cc(-c2ccc3c(c2)[C@H](Nc2cc(C)ccn2)C[C@H](C)N3C(C)=O)cn1 [Example 149, (2S,4R)-1-Acetyl-2-methyl-6-{1-[2-(methylamino)ethyl]-1H-pyrazol-4-yl}-N-(4-methyl-2-pyridinyl)-1,2,3,4-tetrahydro-4-quinolinamine hydrochloride] |  | ≤ 10
17 | CNCCn1cc(-c2ccc3c(c2)[C@H](Nc2ncccc2F)C[C@H](C)N3C(C)=O)cn1 [Example 150, (2S,4R)-1-Acetyl-N-(3-fluoro-2-pyridinyl)-2-methyl-6-{1-[2-(methylamino)ethyl]-1H-pyrazol-4-yl}-1,2,3,4-tetrahydro-4-quinolinamine hydrochloride] |  | ≤ 10
18 | CNCCn1cc(-c2ccc3c(c2)[C@H](Nc2cccc(F)n2)C[C@H](C)N3C(C)=O)cn1 [Example 151, (2S,4R)-1-Acetyl-N-(6-fluoro-2-pyridinyl)-2-methyl-6-{1-[2-(methylamino)ethyl]-1H-pyrazol-4-yl}-1,2,3,4-tetrahydro-4-quinolinamine hydrochloride] |  | ≤ 10
19 | CNCCn1cc(-c2ccc3c(c2)[C@H](Nc2cnccn2)C[C@H](C)N3C(C)=O)cn1 [Example 152, (2S,4R)-1-Acetyl-2-methyl-6-{1-[2-(methylamino)ethyl]-1H-pyrazol-4-yl}-N-2-pyrazinyl-1,2,3,4-tetrahydro-4-quinolinamine hydrochloride] |  | ≤ 10
20 | CNCCn1cc(-c2ccc3c(c2)[C@H](Nc2ncccn2)C[C@H](C)N3C(C)=O)cn1 [Example 153, (2S,4R)-1-Acetyl-2-methyl-6-{1-[2-(methylamino)ethyl]-1H-pyrazol-4-yl}-N-2-pyrimidinyl-1,2,3,4-tetrahydro-4-quinolinamine hydrochloride] |  | ≤ 10
21 | CNCCn1cc(-c2ccc3c(c2)[C@H](Nc2ccc(F)cn2)C[C@H](C)N3C(C)=O)cn1 [Example 154, (2S,4R)-1-Acetyl-N-(5-fluoro-2-pyridinyl)-2-methyl-6-{1-[2-(methylamino)ethyl]-1H-pyrazol-4-yl}-1,2,3,4-tetrahydro-4-quinolinamine hydrochloride] |  | ≤ 10
22 | CNCCn1cc(-c2ccc3c(c2)[C@H](Nc2ccc(C)cn2)C[C@H](C)N3C(C)=O)cn1 [Example 155, (2S,4R)-1-Acetyl-2-methyl-6-{1-[2-(methylamino)ethyl]-1H-pyrazol-4-yl}-N-(5-methyl-2-pyridinyl)-1,2,3,4-tetrahydro-4-quinolinamine hydrochloride] |  | ≤ 10
23 | CNCCn1cc(-c2ccc3c(c2)[C@H](Nc2cc(F)ccn2)C[C@H](C)N3C(C)=O)cn1 [Example 156, (2S,4R)-1-Acetyl-N-(4-fluoro-2-pyridinyl)-2-methyl-6-{1-[2-(methylamino)ethyl]-1H-pyrazol-4-yl}-1,2,3,4-tetrahydro-4-quinolinamine hydrochloride] |  | ≤ 10
24 | CNCc1ccc(-c2ccc3c(c2)[C@H](Nc2ccc(F)cn2)C[C@H](C)N3C(C)=O)cc1 [Example 157, (2S,4R)-1-Acetyl-N-(5-fluoro-2-pyridinyl)-2-methyl-6-{4-[(methylamino)methyl]phenyl}-1,2,3,4-tetrahydro-4-quinolinamine hydrochloride] | ≤ 10 | 
25 | CC(=O)N1c2ccc(-c3ccc(C(=O)O)cc3)cc2[C@@H](Nc2cccc(F)c2)C[C@H]1C [Example 179] | ≤ 10 | 
26 | CC(=O)N1c2ccc(-n3cnc(C)c3)cc2[C@H](Nc2ccc(C)cn2)C[C@@H]1C [Example 190] |  | > 10
